Experimental data published in patent US20100113544A1, “Suppressant for cerebral infarction attributed to long-time ischemia” (Ehime University, priority 2004, published 2010).
Marks after values point to notes of the source that are not given here.

Columns and labels:
[1] = tested on: neurons in the rat striatum; conditions: administered 4 times: immediately, 6, 24 and 48 hours after 15 minutes of transient ischemia, rats; cited from earlier work
neutrophils = test: Number of neutrophils in brain sections (myeloperoxidase immunohistochemistry) after 2 h middle cerebral artery occlusion and reperfusion; assay type: in vivo, rat; conditions: for number of neutrophils, +0.7 mm to the bregma / number of neutrophils, +1.7 mm to the bregma / number of neutrophils, −0.3 mm to the bregma: 1000 mg/kg i.p. twice
Description: (§1) One of the causes for organ dysfunction resulting from ischemia is reperfusion injury after recovery of blood flow, and the inflammatory response is an important factor which induces reperfusion injury. Therefore, as an index of inflammation subsequent to reperfusion of blood flow, the numbers of neutrophils and macrophages were determined.
(§2) Thirty-two male Wistar rats weighting about 300 g were divided into 4 groups with 8 rats in each. The middle cerebral artery of all rats was occluded for two hours, as shown in Example 1. […] Subsequently, 12 or 24 hours after recovery of blood flow, the brain was taken out after perfusion with physiological saline. Frozen sections having 6 μm thick was prepared at a distance of about 1.7 mm rostral to the bregma, i.e. anterior fontanel, 0.7 mm rostral to the bregma toward the rostral side, and 0.3 mm caudal to the bregma.
After observing these frozen sections by light microscopy, the total numbers of neutrophils on the ischemic and non-ischemic sides were obtained rseparately. Also, frozen sections obtained from identical rats were subjected to immunochemistry with an antibody for ED1 which is a cell surface marker of macrophages. […] Therefore, with regard to ED1-positive cells, the difference in the number of cells between the ischemic and non-ischemic sides was calculated. The difference was determined as the number of macrophages and compared between each corresponding group.

[2] = tested on: cerebral infarction after 2 hours middle cerebral artery occlusion in male Wistar rats; test: Size of cerebral infarction (triphenyltetrazolium chloride staining, planimetry) 24 h after reperfusion following 2 h middle cerebral artery occlusion; assay type: in vivo, rat; conditions: for size of cerebral infarction, Cerebral cortex / size of cerebral infarction, Striatum / size of cerebral infarction, Total: mean ± SD
Excerpt: These rats were anesthetized with a gas mixture of 2% halothane, 49% oxygen and 49% laughing gas, i.e. N2O, and kept under spontaneous breathing. Subsequently, a median incision was made in the neck of the rat placed on its back, and the right common carotid artery was exposed. After an intraperitoneal injection of 100 units of heparin, the root of the right middle cerebral artery was occluded by inserting 4·0 nylon thread coated with silicone into the right internal carotid artery from the bifurcation of the internal and external carotid arteries. The tip of the nylon thread was placed 18 mm from the bifurcation. After suture of the incision of the skin, the rats were allowed to recover from anesthesia. During surgery, an electronic thermometer was inserted into the rectum, and the temperature of the rectum was maintained at 37.0±0.1° C. with a lamp.
Five minutes before reperfusion of blood flow, the rats were anesthetized again. After opening the skin suture, the cerebral blood flow was resumed by removing the nylon thread by 5 mm 2 hours after middle cerebral artery occlusion. […] After recovery from anesthesia, the rats were allowed to access food and water freely.
Twenty-four hours after recovery of blood flow, sodium pentobarbital was intraperitoneally administered to the rats for anesthesia. Subsequently, the brain was perfused with heparinized-physiological saline, and the rat was decapitated. The brain was quickly taken out, and rinsed in physiological saline. The brain was sliced coronally between the optic chiasm and the caucal edge of the mammillary body at a thickness of 2 mm. These brain slices were subjected to incubation with 2% triphenyltetrazolium chloride in phosphate buffer (0.1 mol/L, pH 7.4) at 37° C. As a result, due to the action of dehydrogenase present in viable cells, triphenyltetrazolium chloride was reduced, and the tissue was stained in dark red. On the other hand, the dead tissue in the infarcted area was not stained. These brain slices were preserved in phosphate-buffered formalin overnight. […] The obtained size of cerebral infarction was subjected to analysis of variance and the Scheffe test.
The values in the table (unit: mm^3) indicate the size of cerebral infarction as the “mean ±standard deviation”, while “*” denotes a case in which it was significant versus the control group by p<0.05, and “**” denotes a case in which it was significant versus the control group by p<0.01.

[3] = tested on: pyramidal neurons in the hippocampal CA-1 region; conditions: administration prior to transient ischemia (5 or 10 minutes forebrain ischemia), rat; cited from earlier work
[4] = tested on: ED1-positive cells (macrophages); test: Number of ED1-positive cells / macrophages in brain sections (ED1 immunohistochemistry) after 2 h middle cerebral artery occlusion and reperfusion; assay type: in vivo, rat; conditions: for number of ED1-positive cells: versus control; for number of ED1-positive cells, Differences (number of macrophages), +0.7 mm to the bregma / number of ED1-positive cells, Differences (number of macrophages), +1.7 mm to the bregma / number of ED1-positive cells, Differences (number of macrophages), −0.3 mm to the bregma: difference between ischemic and non-ischemic sides; for number of ED1-positive cells, Differences (number of macrophages), +0.7 mm to the bregma / number of ED1-positive cells, Differences (number of macrophages), +1.7 mm to the bregma / number of ED1-positive cells, Differences (number of macrophages), −0.3 mm to the bregma / number of ED1-positive cells, +0.7 mm to the bregma / number of ED1-positive cells, +1.7 mm to the bregma / number of ED1-positive cells, −0.3 mm to the bregma: 1000 mg/kg i.p. twice
Description: as §1, §2
After observing these frozen sections by light microscopy, the total numbers of neutrophils on the ischemic and non-ischemic sides were obtained rseparately. Also, frozen sections obtained from identical rats were subjected to immunochemistry with an antibody for ED1 which is a cell surface marker of macrophages. ED1 is considered to exist in cells besides macrophages, and in fact, ED1-positive cells were also observed on the non-ischemic side in the experiment. However, as in Table 2, neutrophils were not observed on non-ischemia side, where inflammation was not observed. Therefore, with regard to ED1-positive cells, the difference in the number of cells between the ischemic and non-ischemic sides was calculated. The difference was determined as the number of macrophages and compared between each corresponding group. In Tables 2 and 3, “*” denotes a case in which significant differences versus the control group were observed by p<0.05 by Fisher's PLSD (protected least significant difference) tests, and “**” denotes a case in which significant difference was observed by p<0.01.

[5] = patients who received the drug; cited from earlier work
[6] = 12 hours after onset of reperfusion, ischemic side
[7] = 12 hours after onset of reperfusion, non-ischemic side
[8] = 24 hours after onset of reperfusion, ischemic side
[9] = 24 hours after onset of reperfusion, non-ischemic side
[10] = administration after ischemia, 200 mg/kg i.p. immediately and 6 h after reperfusion
[11] = administration after ischemia, 500 mg/kg i.p. immediately and 6 h after reperfusion
[12] = administration after ischemia, 1000 mg/kg i.p. immediately and 6 h after reperfusion
[13] = administration before ischemia, 1000 mg/kg i.p. once 10 min before occlusion, 24 h after reperfusion
[14] = 12 hours after the onset of reperfusion
[15] = 12 hours after the onset of reperfusion, ischemic side
[16] = 12 hours after the onset of reperfusion, non-ischemic side
[17] = 24 hours after the onset of reperfusion
[18] = 24 hours after the onset of reperfusion, ischemic side
[19] = 24 hours after the onset of reperfusion, non-ischemic side

For `N[C@@H](Cc1c[nH]cn1)C(=O)O` [histidine], the “neuronal death 7 days after ischemia caused by apoptosis” value [1] is listed as “depressed”, the neutrophil infiltration (neutrophils; 12 hours after ischemia, histidine-administration group versus control) is listed as “significantly suppressed” and the “number of neutrophils, +0.7 mm to the bregma” value (“number of neutrophils, +0.7 mm” for short) (neutrophils; [6]) is listed as 128 ± 82. The “number of neutrophils, +1.7 mm to the bregma” value (“number of neutrophils, +1.7 mm” below) (neutrophils; [6]) was 101 ± 80, the “number of neutrophils, −0.3 mm to the bregma” value (from here on “number of neutrophils, −0.3 mm”) (neutrophils; [6]) was 106 ± 54 and the “number of neutrophils, +0.7 mm” value (neutrophils; [7]) was 0 ± 0. For the same compound, the “number of neutrophils, +1.7 mm” value (neutrophils; [7]) was 1 ± 2, the “number of neutrophils, −0.3 mm” value (neutrophils; [7]) was 0 ± 0 and the “number of neutrophils, +0.7 mm” value (neutrophils; [8]) was 250 ± 169. For the same compound, the “number of neutrophils, −0.3 mm” value (neutrophils; [8]) was 287 ± 162, the “number of neutrophils, +0.7 mm” value (neutrophils; [9]) was 0 ± 0 and the “number of neutrophils, +1.7 mm” value (neutrophils; [9]) was 1 ± 2. The “number of neutrophils, −0.3 mm” value (neutrophils; [9]) was 0 ± 0, the “infarcted volume compared with that of the control group” value (“infarcted volume compared with that” below) ([2]; 200 mg/kg immediately after reperfusion and 6 hours thereafter) was 71% and the “infarcted volume compared with that” value ([2]; 500 mg/kg immediately after reperfusion and 6 hours thereafter) was 39%. The “infarcted volume compared with that” value ([2]; 1000 mg/kg immediately after reperfusion and 6 hours thereafter) was 7%, the “size of cerebral infarction, Cerebral cortex” value (“size … Cerebral cortex” for short) [2, 10] was 78.8 ± 52.3 mm^3 and the “size of cerebral infarction, Striatum” value [2, 10] was 34.3 ± 23.0 mm^3. The “size of cerebral infarction, Total” value [2, 10] was 113.2 ± 74.0 mm^3, the “size … Cerebral cortex” value [2, 11] was 39.9 ± 44.5 mm^3 and the “size of cerebral infarction, Striatum” value [2, 11] was 19.1 ± 24.4** mm^3. The “size of cerebral infarction, Total” value [2, 11] was 59.0 ± 63.4* mm^3, the “size … Cerebral cortex” value [2, 12] was 7.5 ± 13.3** mm^3 and the “size of cerebral infarction, Striatum” value [2, 12] was 3.3 ± 12.8** mm^3. The “size of cerebral infarction, Total” value [2, 12] was 10.7 ± 14.5** mm^3, the “size … Cerebral cortex” value [2, 13] was 81.4 ± 26.0 mm^3 and the “size of cerebral infarction, Striatum” value [2, 13] was 34.4 ± 16.0 mm^3. The “size of cerebral infarction, Total” value [2, 13] was 115.8 ± 39.2 mm^3, the “size of infarction compared with that of the control group” value ([2]; pre-ischemic histidine 1000 mg/kg administration group) was “no significant difference” and the “programmed death (delayed neuronal death) of neurons” value [3] was “depressed”. The “number of ED1-positive cells” value ([4]; 12 hours after ischemia for 2 hours, cross section at +0.7 mm rostral to the bregma) was “significantly decreased”, the “number of ED1-positive cells, Differences (number of macrophages), +0.7 mm to the bregma” value [4, 14] was 123 ± 100* and the “number of ED1-positive cells, Differences (number of macrophages), +1.7 mm to the bregma” value [4, 14] was 135 ± 101. For the same compound, the “number of ED1-positive cells, Differences (number of macrophages), −0.3 mm to the bregma” value [4, 14] was 92 ± 107, the “number of ED1-positive cells, +0.7 mm to the bregma” value [4, 15] was 450 ± 190 and the “number of ED1-positive cells, +1.7 mm to the bregma” value [4, 15] was 366 ± 149. For the same compound, the “number of ED1-positive cells, −0.3 mm to the bregma” value [4, 15] was 363 ± 186, the “number of ED1-positive cells, +0.7 mm to the bregma” value [4, 16] was 328 ± 113 and the “number of ED1-positive cells, +1.7 mm to the bregma” value [4, 16] was 238 ± 95. For the same compound, the “number of ED1-positive cells, −0.3 mm to the bregma” value [4, 16] was 309 ± 72, the “number of ED1-positive cells” value ([4]; 24 hours after ischemia, all cross sections) was “significant decreases” and the “number of ED1-positive cells, Differences (number of macrophages), +0.7 mm to the bregma” value [4, 17] was 141 ± 104*. The “number of ED1-positive cells, Differences (number of macrophages), +1.7 mm to the bregma” value [4, 17] was 125 ± 72*, the “number of ED1-positive cells, Differences (number of macrophages), −0.3 mm to the bregma” value [4, 17] was 190 ± 93* and the “number of ED1-positive cells, +0.7 mm to the bregma” value [4, 18] was 264 ± 101. For the same compound, the “number of ED1-positive cells, +1.7 mm to the bregma” value [4, 18] was 230 ± 57, the “number of ED1-positive cells, −0.3 mm to the bregma” value [4, 18] was 340 ± 107 and the “number of ED1-positive cells, +0.7 mm to the bregma” value [4, 19] was 124 ± 34. For the same compound, the “number of ED1-positive cells, +1.7 mm to the bregma” value [4, 19] was 104 ± 28 and the “number of ED1-positive cells, −0.3 mm to the bregma” value [4, 19] was 150 ± 46.
For `CC1=NN(c2ccccc2)C(=O)C1` [edaravone], the “patients who showed abnormal values in laboratory tests on the liver function” value [5] is listed as 21.4%.
